Source: patent US20150223453A1, “QUATERNARY AMMONIUM ACID COMPOUNDS AND COMPOSITIONS FOR DISINFECTION, SANITIZATION, AND CLEANING” (LONZA INC., priority 2014, published 2015)

Test system: Pa
Experiment: OECD Quantitative Method for Evaluating Bactericidal Activity of Microbiocides Used on Hard, Non-Porous Surfaces
Format: cell-based, Pseudomonas aeruginosa
Conditions: for level of efficacy / number of organisms reduced (in words): quaternary ammonium acid compounds based on different acids, summary of the OECD tests
Description: One acknowledged method for determining micro efficacy is the OECD (Organisation for Economic Co-operation and Development) Quantitative Method for Evaluating Bactericidal Activity of Microbiocides Used on Hard, Non-Porous Surfaces. This method entails inoculating small, stainless steel disks called carriers with inoculum, in the presence of hard water. It is theorized that microorganisms, such as pseudomonas, form a biofilm on these carriers. Due to the size of the disk, the presence of a biofilm and the surface tension of the liquid on the disk, this requires qua-based systems to be generally over-formulated to achieve the required efficacy to pass testing. This provides an unfair advantage to both acids and oxidizers used as biocides because of their innate ability to oxidize steel, remove the biofilm without being affected by hard water. This invention combats this issue by combining the biocidal power of quaternary ammonium compound with the oxidizing power of acid.

[1] = 800 ppm Active/375 ppm Hard Water/5% Organic Soil/5 Minute Contact Time

Molecule | OECD results of Quaternium Ammonium Acid Molecule, Test 1 [1] | OECD results of Quaternium Ammonium Acid Molecule, Test 2 [1] | level of efficacy / number of organisms reduced (in words) | other results
O=C(O)C(O)C(O)C(=O)O (stereo not drawn) [Tartaric] | 4.22 | 3.05 | greatest level of efficacy | level of efficacy / number of organisms reduced (in words) (listed as tartaric acid): highest number of organisms reduced
didecyl dimethyl ammonium carbonate/bicarbonate [Quat Carbonate, reference compound] | – | – | – | Log10 Reduction vs. Pa (Quaternium Ammonium Chloride in Acid Solution, 800 ppm Active/375 ppm Hard Water/5% Organic Soil/5 Minute Contact Time): <2.82 Log10
Oxalic | 5.54 | – | greatest level of efficacy | level of efficacy / number of organisms reduced (in words) (listed as oxalic acid): highest number of organisms reduced
O=P(O)(O)O [Phosphoric] | – | 4.93 | greatest level of efficacy | level of efficacy / number of organisms reduced (in words) (listed as phosphoric acid): highest number of organisms reduced
Sulfuric | 3.14 | – | – | –
CCCCCCCCCC[N+](C)(C)CCCCCCCCCC.O=C([O-])CO [Glycolic] | 1.99 | – | – | –
CC(=O)[O-].CCCCCCCCCC[N+](C)(C)CCCCCCCCCC [Acetic] | 5.71 | 4.93 | greatest level of efficacy | level of efficacy / number of organisms reduced (in words) (listed as acetic acid): highest number of organisms reduced
CCCCCCCCCC[N+](C)(C)CCCCCCCCCC.NS(=O)(=O)[O-] [Sulfamic] | 4.66 | – | greatest level of efficacy | level of efficacy / number of organisms reduced (in words) (listed as sulfamic acid): highest number of organisms reduced
CCCCCCCCCC[N+](C)(C)CCCCCCCCCC.O=[N+]([O-])[O-] [Nitric] | 1.94 | – | – | –
